Measurements as given in patent publication US20240150423A1, “GLP-1 ANALOGUE-MODIFIED DIMERS WITH DIFFERENT CONFIGURATIONS, PREPARATION METHOD THEREOF, AND APPLICATION THEREOF IN TREATMENT OF TYPE II DIABETES” (Nanjing Finepeptide Biopharmaceutical Co.,Ltd, priority 2019, published 2024).

Tested on: Normal Kunming (KM) mice
Assay: multiple OGTT (mOGTT): hypoglycemic duration after a single administration
Type: in vivo
Settings: monomeric peptides, single injection at the same dose (1.126 nmol), subcutaneous
Excerpt: • 1. Methods: Normal Kunming (KM) mice (purchased from Guangdong Animal Center) were used for oral glucose tolerance test (OGTT) to obtain the hypoglycemic activity and durability of drug. […] The blood glucose meter and blood glucose test paper were from Bayer […]. The average blood glucose of each group was used as an evaluation standard: When the average blood glucose of experimental group was higher than that of the NaCl control group for two times, the measurement stopped and the hypoglycemic period compared to the blank control group was the effective duration. • 2. Results • 2.1 single OGTTs: after a single administration, the mice were orally administered glucose once and measured the blood glucose from the tail blood at 0, 10, 20, 40, 60 and 120 min. […] The duration of each monomer group was about 1⁄2-1⁄4 of the duration of its corresponding dimer group. […] Therefore, the 2G3 peptide was selected for treating type II diabetes (T2D) in vivo and subsequent experiments.

Row | Substance | Hypoglycemic
1 | His-Ala-Glu-Gly-Thr-Phe-Thr-Cys-Asp-Val-Ser-Ser-Tyr-Leu-Glu-Gly-Gln-Ala-Ala-Lys[N-ϵ-(N-α-Palmitoyl-L-γ-glutamyl)]-Glu-Phe-Ile-Ala-Trp-Leu-Val-Arg-Gly-Arg-Gly-OH (HAEGTFTCDVSSYLEGQAAXEFIAWLVRGRG; palmitoyl-gamma-Glu on Lys; C-terminal acid; Sequence is synthesized; (20)..(20) Xaa is 26Lys[N-e-(N-a-palmitoyl-L-g-glutamyl)]; (31)..(31) C-terminal) [G8 series 56] | 1 days
2 | His-Ala-Glu-Gly-Thr-Phe-Thr-Ser-Asp-Val-Cys-Ser-Tyr-Leu-Glu-Gly-Gln-Ala-Ala-Lys[N-ϵ-(N-α-Palmitoyl)]-Glu-Phe-Ile-Ala-Trp-Leu-Val-Arg-Gly-Arg-Gly-NH2 (HAEGTFTSDVCSYLEGQAAXEFIAWLVRGRG; palmitoyl on Lys; C-terminal amide; Sequence is synthesized; (20)..(20) Xaa is 26Lys[N-e-(N-a-palmitoyl-L-g-glutamyl)]; (31)..(31) N-terminal) [G4 series 25] | 5 days
3 | His-Ala-Glu-Gly-Thr-Phe-Thr-Ser-Asp-Val-Cys-Ser-Tyr-Leu-Glu-Gly-Gln-Ala-Ala-Lys[N-ϵ-(N-α-Palmitoyl)]-Glu-Phe-Ile-Ala-Trp-Leu-Val-Arg-Gly-Arg-Gly-OH (HAEGTFTSDVCSYLEGQAAXEFIAWLVRGRG; palmitoyl on Lys; C-terminal acid; Sequence is synthesized; (20)..(20) Xaa is 26Lys[N-e-(N-a-palmitoyl-L-g-glutamyl)]; (31)..(31) C-terminal) [G4 series 24] | 3 days
4 | His-Ala-Glu-Gly-Thr-Phe-Thr-Ser-Asp-Val-Cys-Ser-Tyr-Leu-Glu-Gly-Gln-Ala-Ala-Lys[N-ϵ-(N-α-Palmitoyl-L-γ-glutamyl)]-Glu-Phe-Ile-Ala-Trp-Leu-Val-Arg-Gly-Arg-Gly-NH2 (HAEGTFTSDVCSYLEGQAAXEFIAWLVRGRG; palmitoyl-γ-glutamyl on Lys; C-terminal amide; Sequence is synthesized; (20)..(20) Xaa is Xaa is 26Lys[N-e-(N-a-Palmitoyl-g-glutamyl)]; (31)..(31) N-terminal) [G2 series 8] | 5 days
5 | His-Ala-Glu-Gly-Thr-Phe-Thr-Ser-Asp-Val-Cys-Ser-Tyr-Leu-Glu-Gly-Gln-Ala-Ala-Lys[N-ϵ-(N-α-oleoyl)]-Glu-Phe-Ile-Ala-Trp-Leu-Val-Arg-Gly-Arg-Gly-NH2 (HAEGTFTSDVCSYLEGQAAXEFIAWLVRGRG; oleoyl on Lys; C-terminal amide; Sequence is synthesized; (20)..(20) Xaa is 26Lys[N-e-(N-a-oleoyl-L-g-glutamyl)]; (31)..(31) N-terminal) [G4 series 27] | 6 days
6 | His-Ala-Glu-Gly-Thr-Phe-Thr-Ser-Asp-Val-Cys-Ser-Tyr-Leu-Glu-Gly-Gln-Ala-Ala-Lys[N-ϵ-(N-α-oleoyl)]-Glu-Phe-Ile-Ala-Trp-Leu-Val-Arg-Gly-Arg-Gly-OH (HAEGTFTSDVCSYLEGQAAXEFIAWLVRGRG; oleoyl on Lys; C-terminal acid; Sequence is synthesized; (20)..(20) Xaa is 26Lys[N-e-(N-a-oleoyl-L-g-glutamyl)]; (31)..(31) C-terminal) [G4 series 26] | 4 days
7 | His-Ala-Glu-Gly-Thr-Phe-Thr-Ser-Asp-Val-Cys-Ser-Tyr-Leu-Glu-Gly-Gln-Ala-Ala-Lys[N-ϵ-(N-α-oleoyl-L-γ-glutamyl)]-Glu-Phe-Ile-Ala-Trp-Leu-Val-Arg-Gly-Arg-Gly-NH2 (HAEGTFTSDVCSYLEGQAAXEFIAWLVRGRG; oleoyl-γ-glutamyl on Lys; C-terminal amide; Sequence is synthesized; (20)..(20) Xaa is 26Lys[N-e-(N-a-oleoyl-L-g-glutamyl)]; (31)..(31) N-terminal) [G2 series 10] | 5 days
8 | His-Ala-Glu-Gly-Thr-Phe-Thr-Ser-Asp-Val-Cys-Ser-Tyr-Leu-Glu-Gly-Gln-Ala-Ala-Lys[N-ϵ-(N-α-oleoyl-L-γ-glutamyl)]-Glu-Phe-Ile-Ala-Trp-Leu-Val-Arg-Gly-Arg-Gly-OH (HAEGTFTSDVCSYLEGQAAXEFIAWLVRGRG; oleoyl-γ-glutamyl on Lys; C-terminal acid; Sequence is synthesized; (20)..(20) Xaa is 26Lys[N-e-(N-a-oleoyl-L-g-glutamyl)]; (31)..(1) C-terminal) [G2 series 9] | 3 days
9 | His-Ala-Glu-Gly-Thr-Phe-Thr-Ser-Asp-Val-Ser-Cys--Tyr-Leu-Glu-Gly-Gln-Ala-Ala-Lys[N-ϵ-(N-α-oleoyl-L-γ-glutamyl)]-Glu-Phe-Ile-Ala-Trp-Leu-Val-Arg-Gly-Arg-Gly-NH2 (HAEGTFTSDVSCYLEGQAAXEFIAWLVRGRG; oleoyl-γ-glutamyl on Lys; C-terminal amide; Sequence is synthesized; (20)..(20) Xaa is 26Lys[N-e-(N-a-oleoyl-L-g-glutamyl)]; (31)..(31) N-terminal) [G3 series 23] | 7 days
10 | His-Ala-Glu-Gly-Thr-Phe-Thr-Ser-Asp-Val-Ser-Cys-Tyr-Leu-Glu-Gly-Gln-Ala-Ala-Lys-Glu-Phe-Ile-Ala-Trp-Leu-Val-Arg-Gly-Arg-NH-PEG (HAEGTFTSDVSCYLEGQAAKEFIAWLVRGR; not fully specified; C-terminal PEG; Sequence is synthesized; (30)..(30) N-terminal is modified with PEG) [G9 series 71] | 3 days
11 | His-Ala-Glu-Gly-Thr-Phe-Thr-Ser-Asp-Val-Ser-Cys-Tyr-Leu-Glu-Gly-Gln-Ala-Ala-Lys[N-ϵ-(N-α-Palmitoyl)]-Glu-Phe-Ile-Ala-Trp-Leu-Val-Arg-Gly-Arg-Gly-NH2 (HAEGTFTSDVSCYLEGQAAXEFIAWLVRGRG; palmitoyl on Lys side chain; C-terminal amide; Sequence is synthesized; (20)..(20) Xaa is 26Lys[N-e-(N-a-palmitoyl-L-g-glutamyl)]; (31)..(31) N-terminal) [G4 series 35] | 6 days
12 | His-Ala-Glu-Gly-Thr-Phe-Thr-Ser-Asp-Val-Ser-Cys-Tyr-Leu-Glu-Gly-Gln-Ala-Ala-Lys[N-ϵ-(N-α-Palmitoyl)]-Glu-Phe-Ile-Ala-Trp-Leu-Val-Arg-Gly-Arg-Gly-OH (HAEGTFTSDVSCYLEGQAAXEFIAWLVRGRG; not fully specified; palmitoyl on Lys side chain; C-terminal acid; Sequence is synthesized; (20)..(20) Xaa is 26Lys[N-e-(N-a-palmitoyl-L-g-glutamyl)]; (31)..(31) C-terminal) [G4 series 34] | 4 days
13 | His-Ala-Glu-Gly-Thr-Phe-Thr-Ser-Asp-Val-Ser-Cys-Tyr-Leu-Glu-Gly-Gln-Ala-Ala-Lys[N-ϵ-(N-α-Palmitoyl-L-γ-glutamyl)]-Glu-Phe-Ile-Ala-Trp-Leu-Val-Arg-Gly-Arg-Gly-NH2 (HAEGTFTSDVSCYLEGQAAXEFIAWLVRGRG; palmitoyl-γ-glutamyl on Lys; C-terminal amide; Sequence is synthesized; (20)..(20) Xaa is 26Lys[N-e-(N-a-palmitoyl-L-g-glutamyl)]; (31)..(31) N-terminal) [G3 series 22] | 6 days
14 | His-Ala-Glu-Gly-Thr-Phe-Thr-Ser-Asp-Val-Ser-Cys-Tyr-Leu-Glu-Gly-Gln-Ala-Ala-Lys[N-ϵ-(N-α-Palmitoyl-L-γ-glutamyl)]-Glu-Phe-Ile-Ala-Trp-Leu-Val-Lys[N-ϵ-(N-α-Palmitoyl-L-γ-glutamyl)]-Gly-Arg-Gly-NH2 (HAEGTFTSDVSCYLEGQAAXEFIAWLVXGRG; two palmitoyl-gamma-Glu on Lys; C-terminal amide; Sequence is synthesized; (20)..(20) Xaa is 26Lys[N-e-(N-a-palmitoyl-L-g-glutamyl)]; (28)..(28) Xaa is 26Lys[N-e-(N-a-palmitoyl-L-g-glutamyl)]; (31)..(31) N-terminal) [G5 series 41] | 3 days
15 | His-Ala-Glu-Gly-Thr-Phe-Thr-Ser-Asp-Val-Ser-Cys-Tyr-Leu-Glu-Gly-Gln-Ala-Ala-Lys[N-ϵ-(N-α-Palmitoyl-L-γ-glutamyl)]-Glu-Phe-Ile-Ala-Trp-Leu-Val-Lys[N-ϵ-(N-α-Palmitoyl-L-γ-glutamyl)]-Gly-Arg-Gly-OH (HAEGTFTSDVSCYLEGQAAXEFIAWLVXGRG; two palmitoyl-gamma-Glu on Lys; C-terminal acid; Sequence is synthesized; (20)..(20) Xaa is 26Lys[N-e-(N-a-palmitoyl-L-g-glutamyl)]; (28)..(28) Xaa is 26Lys[N-e-(N-a-palmitoyl-L-g-glutamyl)]; (31)..(31) C-terminal) [G5 series 40] | 1 days
16 | His-Ala-Glu-Gly-Thr-Phe-Thr-Ser-Asp-Val-Ser-Cys-Tyr-Leu-Glu-Gly-Gln-Ala-Ala-Lys[N-ϵ-(N-α-oleoyl)]-Glu-Phe-Ile-Ala-Trp-Leu-Val-Arg-Gly-Arg-Gly-NH2 (HAEGTFTSDVSCYLEGQAAXEFIAWLVRGRG; not fully specified; oleoyl on Lys; C-terminal amide; Sequence is synthesized; (20)..(20) Xaa is 26Lys[N-e-(N-a-oleoyl-L-g-glutamyl)]; (31)..(31) N-terminal) [G4 series 33] | 7 days
